Results reported in publication PMC4008261, “Rewiring of regenerated axons by combining treadmill training with semaphorin3A inhibition” (Molecular Brain, 2014).

What was measured:
[1] = system: SCT adult rats; test: Kinematic analysis before and after re-transection; type: in vivo, rat
Protocol: A total of 53 adult female Sprague-Dawley rats (200-250 g, 10-12 weeks old) were used in this study (3 rats died during the experimental period and were excluded from the statistical analysis). All procedures were approved by the experimental animal care committee of Keio University, School of Medicine and Murayama Medical Center (approval #12-8). All rats were anesthetized with an intraperitoneal injection of ketamine (100 mg/kg)/xylazine (10 mg/kg). The spinal cord at the level of the T10 lamina was exposed by T10 laminectomy, and the dorsal dura mater was opened. The exposed spinal cord was cut along the inner edge of the vertebra with a sharp micro-scissor. […] Kinematic data were recorded using similar procedures prior to re-transection surgery (on the same day) and on the day following re-transection surgery. […]
To evaluate the locomotor capability of SCT rats in detail, the aforementioned robotic device was employed. Each robotic arm tracked the two-dimensional movement of the ankle, and the trajectory of the ankle movement was then recorded on a computer for kinematic analyses. […] Briefly, the ankle trajectory in each plane was recorded by the robotic arm and a computer. […] All kinematic characteristics were obtained when TO and PC were identified; as a result, parameters such as the duration phase, the swing phase of the step cycle and the length and height of the step were calculated. […]

[2] = target: Caspase 3 (Homo sapiens, UniProt P42574); test: Pharmacological profile: enzyme inhibition; type: biochemical
Excerpt: (§1) Table 1 Pharmacological profile of SM-345431 (part 1) | column: IC50 (μm)

[3] = target: Sphingomyelinase, Neutral (N-SMase); test: Pharmacological profile: enzyme inhibition; type: biochemical
Excerpt: as §1

[4] = target: Protein Tyrosine Phosphatase, T-Cell (Homo sapiens, UniProt P17706); test: Pharmacological profile: enzyme inhibition; type: biochemical
Excerpt: as §1

[5] = target: Matrix Metalloproteinase-2 (MMP-2) (Homo sapiens, UniProt P08253); test: Pharmacological profile: enzyme inhibition; type: biochemical
Excerpt: as §1

[6] = target: Caspase 6 (Homo sapiens, UniProt P55212); test: Pharmacological profile: enzyme inhibition; type: biochemical
Excerpt: as §1

[7] = target: Matrix Metalloproteinase-7 (MMP-7) (Homo sapiens, UniProt P09237); test: Pharmacological profile: enzyme inhibition; type: biochemical
Excerpt: as §1

[8] = target: Matrix Metalloproteinase-9 (MMP-9) (Homo sapiens, UniProt P14780); test: Pharmacological profile: enzyme inhibition; type: biochemical
Excerpt: as §1

[9] = target: Matrix Metalloproteinase-3 (MMP-3) (Homo sapiens, UniProt P08254); test: Pharmacological profile: enzyme inhibition; type: biochemical
Excerpt: as §1

[10] = target: Matrix Metalloproteinase-1 (MMP-1) (Homo sapiens, UniProt P03956); test: Pharmacological profile: enzyme inhibition; type: biochemical
Excerpt: as §1

[11] = target: Protein Tyrosine Phosphatase, PTP1C (Homo sapiens, UniProt P29350); test: Pharmacological profile: enzyme inhibition; type: biochemical
Excerpt: as §1

[12] = target: Caspase 7 (Homo sapiens, UniProt P55210); test: Pharmacological profile: enzyme inhibition; type: biochemical
Excerpt: as §1

[13] = target: Caspase 1 (Homo sapiens, UniProt P29466); test: Pharmacological profile: enzyme inhibition; type: biochemical
Excerpt: as §1

[14] = target: Protein Tyrosine Phosphatase, CD45 (Homo sapiens, UniProt P08575); test: Pharmacological profile: enzyme inhibition; type: biochemical
Excerpt: as §1

[15] = target: Caspase 8 (Homo sapiens, UniProt Q14790); test: Pharmacological profile: enzyme inhibition; type: biochemical
Excerpt: as §1

[16] = target: Protein Tyrosine Phosphatase, PTP1B (Homo sapiens, UniProt P18031); test: Pharmacological profile: enzyme inhibition; type: biochemical
Excerpt: as §1

Caspase 8, sequence (Q14790 217-374 limits assumed, species assumed): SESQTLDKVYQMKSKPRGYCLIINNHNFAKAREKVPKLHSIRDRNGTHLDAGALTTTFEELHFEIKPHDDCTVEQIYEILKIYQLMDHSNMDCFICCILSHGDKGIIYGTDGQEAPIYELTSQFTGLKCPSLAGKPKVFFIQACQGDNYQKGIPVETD
Caspase 8, sequence (Q14790 385-479 limits assumed, species assumed): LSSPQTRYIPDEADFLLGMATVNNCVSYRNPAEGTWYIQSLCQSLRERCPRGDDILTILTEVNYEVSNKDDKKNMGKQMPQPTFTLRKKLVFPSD
Protein Tyrosine Phosphatase, T-Cell, sequence (P17706 whole entry): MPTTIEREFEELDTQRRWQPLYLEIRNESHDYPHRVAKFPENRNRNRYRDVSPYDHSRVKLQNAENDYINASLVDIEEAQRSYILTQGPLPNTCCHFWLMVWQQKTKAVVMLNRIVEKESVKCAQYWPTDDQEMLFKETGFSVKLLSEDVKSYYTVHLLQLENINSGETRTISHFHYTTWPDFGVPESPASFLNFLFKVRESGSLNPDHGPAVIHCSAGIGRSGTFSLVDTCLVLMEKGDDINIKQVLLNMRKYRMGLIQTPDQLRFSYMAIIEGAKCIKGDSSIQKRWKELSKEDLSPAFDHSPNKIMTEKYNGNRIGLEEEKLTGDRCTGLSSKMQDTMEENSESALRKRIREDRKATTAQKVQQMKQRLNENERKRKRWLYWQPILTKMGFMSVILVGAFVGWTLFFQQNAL
Matrix Metalloproteinase-2 (MMP-2), sequence (P08253 110-660, species assumed): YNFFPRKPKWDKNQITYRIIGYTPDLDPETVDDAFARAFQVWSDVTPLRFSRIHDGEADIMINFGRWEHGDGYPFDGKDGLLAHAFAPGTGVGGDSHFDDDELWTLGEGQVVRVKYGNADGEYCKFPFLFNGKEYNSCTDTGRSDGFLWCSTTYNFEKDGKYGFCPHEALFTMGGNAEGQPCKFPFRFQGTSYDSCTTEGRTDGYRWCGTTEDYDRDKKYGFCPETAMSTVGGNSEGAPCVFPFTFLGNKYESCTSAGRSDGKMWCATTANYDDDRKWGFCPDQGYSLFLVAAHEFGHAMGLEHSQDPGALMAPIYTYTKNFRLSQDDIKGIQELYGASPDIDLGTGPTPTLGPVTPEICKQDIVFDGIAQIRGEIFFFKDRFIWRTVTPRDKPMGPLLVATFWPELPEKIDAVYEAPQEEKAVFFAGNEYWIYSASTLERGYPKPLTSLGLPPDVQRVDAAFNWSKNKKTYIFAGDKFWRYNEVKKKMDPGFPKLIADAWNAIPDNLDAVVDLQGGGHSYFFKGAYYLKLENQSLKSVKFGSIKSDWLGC
Caspase 7, sequence (P55210 24-198 limits assumed, species assumed): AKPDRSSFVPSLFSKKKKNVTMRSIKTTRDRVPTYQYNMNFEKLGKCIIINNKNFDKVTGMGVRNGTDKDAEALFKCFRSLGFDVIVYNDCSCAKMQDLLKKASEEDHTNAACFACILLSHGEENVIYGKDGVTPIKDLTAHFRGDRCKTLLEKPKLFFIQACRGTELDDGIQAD
Caspase 7, sequence (P55210 207-303 limits assumed, species assumed): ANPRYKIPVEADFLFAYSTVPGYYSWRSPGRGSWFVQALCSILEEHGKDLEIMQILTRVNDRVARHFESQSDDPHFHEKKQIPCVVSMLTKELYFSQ
Matrix Metalloproteinase-3 (MMP-3), sequence (P08254 100-477, species assumed): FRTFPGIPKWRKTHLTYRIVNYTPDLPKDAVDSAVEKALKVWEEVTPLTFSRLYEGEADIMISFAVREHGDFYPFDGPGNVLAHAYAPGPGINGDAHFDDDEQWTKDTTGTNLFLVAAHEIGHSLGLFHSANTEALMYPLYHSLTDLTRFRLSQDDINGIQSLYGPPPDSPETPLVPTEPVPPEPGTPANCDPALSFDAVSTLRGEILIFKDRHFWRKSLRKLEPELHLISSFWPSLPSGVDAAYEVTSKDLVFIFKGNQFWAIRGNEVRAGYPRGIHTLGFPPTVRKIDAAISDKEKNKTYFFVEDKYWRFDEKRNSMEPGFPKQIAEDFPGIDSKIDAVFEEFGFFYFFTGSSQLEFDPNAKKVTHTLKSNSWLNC
Protein Tyrosine Phosphatase, PTP1B, sequence (P18031 whole entry): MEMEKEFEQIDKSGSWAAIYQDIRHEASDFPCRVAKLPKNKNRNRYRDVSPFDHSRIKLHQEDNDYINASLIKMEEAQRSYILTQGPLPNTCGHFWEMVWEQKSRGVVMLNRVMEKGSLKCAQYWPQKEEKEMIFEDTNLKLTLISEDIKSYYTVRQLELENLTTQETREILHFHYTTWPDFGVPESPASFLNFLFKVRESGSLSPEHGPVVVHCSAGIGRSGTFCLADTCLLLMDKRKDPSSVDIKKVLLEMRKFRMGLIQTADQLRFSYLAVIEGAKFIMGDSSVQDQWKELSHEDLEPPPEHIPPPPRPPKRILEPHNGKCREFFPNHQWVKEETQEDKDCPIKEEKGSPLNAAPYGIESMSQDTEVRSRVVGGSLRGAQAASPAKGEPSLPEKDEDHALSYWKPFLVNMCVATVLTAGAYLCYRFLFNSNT
Caspase 1, sequence (P29466 120-297 limits assumed, species assumed): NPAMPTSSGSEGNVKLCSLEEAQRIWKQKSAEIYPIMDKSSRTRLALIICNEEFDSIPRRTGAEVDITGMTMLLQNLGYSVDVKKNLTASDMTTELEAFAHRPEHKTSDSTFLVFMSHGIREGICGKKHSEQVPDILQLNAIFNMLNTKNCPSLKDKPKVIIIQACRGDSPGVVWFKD
Caspase 1, sequence (P29466 317-404 limits assumed, species assumed): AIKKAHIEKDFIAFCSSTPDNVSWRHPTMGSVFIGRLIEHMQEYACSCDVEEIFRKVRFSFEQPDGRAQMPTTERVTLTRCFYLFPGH
Caspase 6, sequence (P55212 24-179 limits assumed, species assumed): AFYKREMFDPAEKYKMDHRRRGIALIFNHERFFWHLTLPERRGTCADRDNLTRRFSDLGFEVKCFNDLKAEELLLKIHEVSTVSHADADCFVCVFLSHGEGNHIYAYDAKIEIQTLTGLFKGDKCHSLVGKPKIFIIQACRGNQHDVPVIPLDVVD
Caspase 6, sequence (P55212 194-293 limits assumed, species assumed): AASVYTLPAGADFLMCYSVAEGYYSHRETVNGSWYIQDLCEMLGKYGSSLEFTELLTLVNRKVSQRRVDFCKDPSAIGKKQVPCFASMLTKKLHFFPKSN
Protein Tyrosine Phosphatase, CD45, sequence (P08575 26-1306): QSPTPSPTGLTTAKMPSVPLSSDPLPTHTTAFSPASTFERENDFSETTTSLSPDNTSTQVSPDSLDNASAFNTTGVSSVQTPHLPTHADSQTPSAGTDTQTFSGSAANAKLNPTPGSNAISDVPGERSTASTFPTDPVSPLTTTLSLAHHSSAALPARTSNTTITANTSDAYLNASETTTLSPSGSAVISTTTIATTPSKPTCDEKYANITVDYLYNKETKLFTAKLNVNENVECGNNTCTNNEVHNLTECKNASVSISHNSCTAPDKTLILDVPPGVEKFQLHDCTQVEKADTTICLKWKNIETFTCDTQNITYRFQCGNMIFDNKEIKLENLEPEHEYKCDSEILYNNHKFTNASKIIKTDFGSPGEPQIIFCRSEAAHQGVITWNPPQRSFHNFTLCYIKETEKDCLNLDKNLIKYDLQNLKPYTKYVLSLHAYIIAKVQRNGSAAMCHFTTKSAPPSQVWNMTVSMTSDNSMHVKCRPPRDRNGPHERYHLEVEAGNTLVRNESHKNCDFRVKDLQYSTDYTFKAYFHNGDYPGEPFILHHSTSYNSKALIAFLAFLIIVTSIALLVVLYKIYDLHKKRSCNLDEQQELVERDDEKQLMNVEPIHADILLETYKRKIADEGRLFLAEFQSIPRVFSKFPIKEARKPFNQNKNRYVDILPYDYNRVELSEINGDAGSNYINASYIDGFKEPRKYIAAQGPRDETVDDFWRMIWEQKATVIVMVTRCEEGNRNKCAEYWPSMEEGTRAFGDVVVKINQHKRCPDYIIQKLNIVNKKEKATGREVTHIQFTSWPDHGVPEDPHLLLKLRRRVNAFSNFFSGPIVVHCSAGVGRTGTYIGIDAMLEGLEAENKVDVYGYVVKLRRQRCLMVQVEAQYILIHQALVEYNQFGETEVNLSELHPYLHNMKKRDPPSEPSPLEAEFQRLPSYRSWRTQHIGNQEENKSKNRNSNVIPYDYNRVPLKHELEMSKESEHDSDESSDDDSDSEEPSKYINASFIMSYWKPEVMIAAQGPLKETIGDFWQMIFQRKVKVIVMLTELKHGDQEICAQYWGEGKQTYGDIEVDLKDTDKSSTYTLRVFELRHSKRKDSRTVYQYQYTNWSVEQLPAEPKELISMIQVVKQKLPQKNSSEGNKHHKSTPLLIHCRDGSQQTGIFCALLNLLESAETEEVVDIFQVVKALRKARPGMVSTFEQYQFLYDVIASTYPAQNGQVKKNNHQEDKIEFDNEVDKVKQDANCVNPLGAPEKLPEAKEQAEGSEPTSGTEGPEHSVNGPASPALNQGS
Matrix Metalloproteinase-1 (MMP-1), sequence (P03956 100-469, species assumed): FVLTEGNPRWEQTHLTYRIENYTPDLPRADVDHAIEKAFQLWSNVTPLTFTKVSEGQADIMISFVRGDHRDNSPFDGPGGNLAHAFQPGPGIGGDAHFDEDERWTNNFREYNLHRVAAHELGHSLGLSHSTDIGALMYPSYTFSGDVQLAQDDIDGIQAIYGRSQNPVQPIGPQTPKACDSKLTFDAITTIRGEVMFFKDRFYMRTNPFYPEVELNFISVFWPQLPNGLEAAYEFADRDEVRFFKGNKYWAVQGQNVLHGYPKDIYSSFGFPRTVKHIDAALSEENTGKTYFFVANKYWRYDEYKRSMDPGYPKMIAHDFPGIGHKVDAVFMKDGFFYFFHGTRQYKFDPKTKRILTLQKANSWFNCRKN
Caspase 3, sequence (P42574 29-175 limits assumed, species assumed): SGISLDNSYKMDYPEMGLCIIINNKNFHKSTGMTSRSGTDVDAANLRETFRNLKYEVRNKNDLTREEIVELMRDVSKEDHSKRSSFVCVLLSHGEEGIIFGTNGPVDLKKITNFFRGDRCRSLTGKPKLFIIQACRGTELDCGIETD
Caspase 3, sequence (P42574 176-277 limits assumed, species assumed): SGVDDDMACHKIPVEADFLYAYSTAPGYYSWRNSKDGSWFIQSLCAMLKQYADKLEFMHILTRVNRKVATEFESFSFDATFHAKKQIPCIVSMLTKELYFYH

Structure (SMILES): CC(=O)c1cc2c(=O)c3c(C(=O)O)c(O)c(O)cc3oc2c(C(C)=O)c1-c1coc2cc(O)c(O)c(C(=O)O)c2c1=O [SM-345431, Vinaxanthone]
- step cycle area after re-transection ([1]; SM-345431 alone, re-transection 12 weeks after the initial injury): tended to be attenuated
- step ability after re-transection ([1]; SM-345431 combined with treadmill training, average step height P < 0.01, maximum step height P < 0.05): greater attenuations of step ability were observed
- IC50 [2]: > 10 µM
- IC50 [3]: > 10 µM
- IC50 [4]: > 10 µM
- IC50 [5]: > 10 µM
- IC50 [6]: > 10 µM
- IC50 [7]: 10 µM
- IC50 [8]: > 10 µM
- IC50 [9]: > 10 µM
- IC50 [10]: > 10 µM
- IC50 [11]: > 10 µM
- IC50 [12]: > 10 µM
- IC50 [13]: > 10 µM
- IC50 [14]: > 10 µM
- IC50 [15]: > 10 µM
- IC50 [16]: > 10 µM
